Results on five compounds are retold here after publication PMC7318222, “A Family of Water‐Immiscible, Dipolar Aprotic, Diamide Solvents from Succinic Acid” (Chemsuschem, 2020).

“Also recorded” adds a separate entry of the source.

Data set [1] concerns human U2-OS cells. The experiment in a line: CALUX cytotoxicity assay. Format: cell-based. Conditions: for LEC cytotoxicity: PC20, 24 h exposure. The text has this:
DCM ≥99.5%, chloroform ≥99.5%, DMSO ≥99.0% were purchased from VWR. N,N-diethyl-4-nitroaniline ≥98.0% was purchased from Alfa Aeser. Cyrene was supplied by Circa group. N-butylpyrrolidinone was supplied by Eastman chemicals. N,N-dimethylformamide 99.9% and N,N-dimethylacetamide 99.9% were purchased from Fischer. The flakes of Ultrason® E3020 P Polyarylethersulfone of 55,000 Da were obtained from INGE.BASF, Germany. The CALUX cell lines have been described previously.[1] They are based on human U2-OS cells (ATCC, HTB-96) stably transfected with an expression construct for the full-length human receptor under investigation, and a reporter construct consisting of multimerized responsive elements for the cognate receptor coupled to a minimal promoter element (TATA) and a luciferase gene. Cells were maintained as described previously,[2] using cell culture media and supplements from Fisher Scientific as described in the experimental procedures section. […]
(§1) In vitro reporter gene assays
(§2) The automated CALUX assays were carried out similarly as described earlier,[12] with some adaptations. In brief, the assay was performed in CO2 independent medium (Fisher Scientific, […]
(§3) supplement (Fisher Scientific, 11574466), 10 U/mL penicillin and 10 µg/mL streptomycin. A cell suspension in assay medium was made of 1 × 10^5cells/mL, and white 384-wells plates were seeded with 30 µl cell suspension/well. After 24 h, exposure medium was prepared. A dilution series in 0.5log unit increments of each test compound (in DMSO) was added to a 96-wells plate containing assay medium (2% v/v). Of this exposure mixture, 30 µl was added to the assay plates containing the CALUX cells, resulting in a final DMSO concentration of 1%. Additionally, DMSO blanks and a full dose response curve of the relevant reference compound were included on each plate. All samples were tested in triplicate. The preparation of the compound dilution series as well as the exposure of the cells were performed on a Hamilton StarLET liquid handling robot coupled to a Cytomat incubator.
Directly after exposure, plates were sealed with non-breathing plate seals (Plate sealer, easy seal transparent; Greiner-Bio-One, 676001). After 24 h the exposure medium was removed using an EL406 washer-dispenser (BioTek) and 10 µl/well triton lysisbuffer was added by the EL406.
(§4) Subsequently, the luciferase signal was measured in a luminometer (InfinitePro coupled to a Connect Stacker, both TECAN). In order to be able to detect receptor antagonism, several assays were also performed in antagonistic mode. The assay procedure was as described above, with the only exception that the EC50 concentration of the reference agonist was present during the exposure.
The luminometer data was analysed as follows; the average of the triplicate wells was determined, and the average blank (DMSO) value was subtracted. For receptor-based assays the maximum response elicited by the reference compound was set to 100% (full receptor- or pathway activation), and the other values were scaled accordingly. GraphPad Prism was used to fit a sigmoidal curve through the data (four parameters, variable slope). The PC10 concentration was reported as the lowest effect concentration (LEC), which is defined as the concentration where the response elicited by the test compound equals 10% of the maximum response of the reference compound. For antagonist- and cytotoxicity experiments, PC20 values were determined instead, which was defined as the concentration where the test compound causes a 20% decrease in the basal signal, which was […]
curve, the signal induction above background (DMSO) was determined, and the concentration where the compound elicited a 1.5-fold increase above background was used as LEC.

Data set [2] can be described thus: Miscibility with hexane. Format: physicochemical. The settings on record: this work.
For data set [3], the target named is T1, AR (Homo sapiens, UniProt P10275).
T1 construct: expression construct for the full-length human receptor under investigation; expressed in transfected cells; host or cells: human U2-OS cells (ATCC HTB-96), stably transfected
T1 sequence (P10275 1-920): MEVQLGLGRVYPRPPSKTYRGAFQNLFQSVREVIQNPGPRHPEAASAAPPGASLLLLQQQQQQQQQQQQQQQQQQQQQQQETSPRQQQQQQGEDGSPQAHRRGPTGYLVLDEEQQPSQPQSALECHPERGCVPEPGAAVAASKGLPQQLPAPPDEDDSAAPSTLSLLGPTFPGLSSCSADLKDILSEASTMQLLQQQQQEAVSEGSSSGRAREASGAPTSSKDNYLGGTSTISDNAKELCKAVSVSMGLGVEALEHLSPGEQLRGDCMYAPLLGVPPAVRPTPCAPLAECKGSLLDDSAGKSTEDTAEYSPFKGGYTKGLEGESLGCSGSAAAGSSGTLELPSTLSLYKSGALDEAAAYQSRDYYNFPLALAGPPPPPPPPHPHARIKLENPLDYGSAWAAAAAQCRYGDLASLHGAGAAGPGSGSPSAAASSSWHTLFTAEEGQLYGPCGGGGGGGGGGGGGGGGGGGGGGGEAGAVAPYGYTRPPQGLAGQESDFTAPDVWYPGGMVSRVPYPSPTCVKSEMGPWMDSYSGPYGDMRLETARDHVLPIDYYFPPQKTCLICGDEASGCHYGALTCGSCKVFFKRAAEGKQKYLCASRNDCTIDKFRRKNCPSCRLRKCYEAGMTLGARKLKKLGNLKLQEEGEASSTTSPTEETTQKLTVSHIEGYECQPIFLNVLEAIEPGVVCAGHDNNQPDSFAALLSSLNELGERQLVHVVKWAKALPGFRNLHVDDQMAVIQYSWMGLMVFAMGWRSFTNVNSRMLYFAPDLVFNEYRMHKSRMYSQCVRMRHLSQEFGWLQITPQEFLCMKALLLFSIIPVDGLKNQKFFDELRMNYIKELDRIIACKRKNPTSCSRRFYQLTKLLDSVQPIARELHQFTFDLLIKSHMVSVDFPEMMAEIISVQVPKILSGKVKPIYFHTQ
The experiment in a line: AR-anti CALUX reporter gene assay (antagonistic mode). Format: cell-based. Also noted: key: –: no effect observed up to the highest test concentration. Conditions: PC20, 24 h exposure.
Source text: Polyarylethersulfone of 55,000 Da were obtained from INGE.BASF, Germany. The CALUX cell lines have been described previously.[1] They are based on human U2-OS cells (ATCC, HTB-96) stably transfected with an expression construct for the full-length human receptor under investigation, and a reporter construct consisting of multimerized responsive elements for the cognate receptor coupled to a minimal promoter element (TATA) and a luciferase gene. Cells were maintained as described previously,[2] using cell culture media and supplements from Fisher Scientific as described in the experimental procedures section. […]
as §1, §2
as §3, with “with” for “supplement (Fisher Scientific, 11574466), 10 U/mL penicillin and 10 µg/mL streptomycin. A cell suspension in assay medium was made of 1 × 10^5cells/mL, and white 384-wells plates were seeded with”
Directly after exposure, plates were sealed with non-breathing plate seals (Plate sealer, easy seal […]
After 24 h the exposure medium was removed using an EL406 washer-dispenser (BioTek) and 10 µl/well triton lysisbuffer was added by the EL406.
as §4
The luminometer data was analysed as follows; the average of the triplicate wells was determined, […]

Turning to `CCCCN(CCCC)C(=O)CCC(=O)N(CCCC)CCCC` [TBSA, N,N,N′,N′‐tetrabutylsuccindiamide], in data set [1], the LEC cytotoxicity is recorded as −3.4 Log M. In addition, the Hexane misc. entry in data set [2] was “yes^[a]”. Further, the “LEC AR‐anti” value in data set [3] was “–”.

Compound `CCCCN1CCCC1=O` [NBP, N‐Butylpyrrolidinone, reference compound] showed an LEC cytotoxicity in data set [1] of −2.1 Log M. In addition, in data set [2], the Hexane misc. entry was “miscible; also recorded: yes^[a]”. The “LEC AR‐anti” value in data set [3] is recorded as “–”.

For `CN1CCCC1=O` [NMP, N‐methyl‐2‐pyrrolidone, reference compound], in data set [1], the “cytotoxicity lowest effect concentration (LEC)” value is listed as 40 mM and the LEC cytotoxicity is −1.4 Log M. The Hexane misc. result in data set [2] was “no^[a]”.

In turn, `CCCCN(CC)C(=O)CCC(=O)N(CC)CCCC` [EBSA, N,N′‐diethyl‐N,N′‐dibutylsuccindiamide] displayed an LEC cytotoxicity in data set [1] of −3.1 Log M. Besides, the Hexane misc. entry in data set [2] is “yes^[a]”. In data set [3], the “LEC AR‐anti” value was “–”.

`CCCCN(C)C(=O)CCC(=O)N(C)CCCC` [MBSA, N,N′‐dimethyl‐N,N′‐dibutylsuccindiamide] returned an LEC cytotoxicity in data set [1] of −2.3 Log M. In data set [2], the Hexane misc. entry was “yes^[a]”. Also, the “LEC AR‐anti” value in data set [3] is on record as “–”.
